Experimental data reported in US20240010606A1, “FUMARATE DERIVATIVES AND THEIR MEDICAL USE” (Sitryx Therapeutics Limited, priority 2020, published 2024).

Columns and labels:
IL-6 = assay: THP-1 AlphaLISA IL-6 cytokine assay; assay type: cell-based; settings: Homo sapiens
Experimental: Biological Example 1—THP-1 AlphaLISA IL-1β and IL-6 Cytokine Assay Measuring Inhibitory Effects on IL-1, and IL-6 Cytokine Output from THP-1s The cytokine inhibition profiles of compounds of formula (I) were determined in a differentiated THP-1 cell assay. All assays were performed in RPMI-1640 growth medium (Gibco), supplemented with 10% fetal bovine serum (FBS; Gibco), 1% penicillin-streptomycin and 1% sodium pyruvate unless specified otherwise. The IL-1β and IL-6 cytokine inhibition assays were each run in a background of differentiated THP-1 cells as described below. All reagents described were from Sigma-Aldrich unless specified otherwise. Compounds were prepared as 10 mM DMSO stocks. THP-1 cells were expanded as a suspension up to 80% confluence in appropriate growth medium. Cells were harvested, suspended, and treated with an appropriate concentration of phorbol 12-myristate 13-acetate (PMA) over a 72 hr period (37° C./5% CO2). Following 72 hrs of THP-1 cell incubation, cellular medium was removed and replaced with fresh growth media containing 1% of FBS. Working concentrations of compounds were prepared separately in 10% FBS treated growth medium and pre-incubated with the cells for 30 minutes (37° C./5% CO2). Following the 30 minute compound pre-incubation, THP-1s were treated with an appropriate concentration of LPS and the THP-1s were subsequently incubated for a 24 hr period (37° C./5% CO2). An appropriate final concentration of Nigericin was then dispensed into the THP-1 plates and incubated for 1 hour (37° C./5% CO2) before THP-1 supernatants were harvested and collected in separate polypropylene 96-well holding plates. Reagents from each of the IL-1β and IL-6 commercial kits (Perkin Elmer) were prepared and run according to the manufacturer's instructions. Subsequently, fluorescence signal detection in a microplate reader was measured (EnVision® Multilabel Reader, Perkin Elmer). Percentage inhibition was calculated per cytokine by normalizing the sample data to the high and low controls used within each plate (+/−LPS respectively). Percentage inhibition was then plotted against compound concentration and the 50% inhibitory concentration (IC50) was determined from the resultant concentration-response curve.

[1] = Hepatocyte stability assay, human; assay type: in vitro ADME; settings: cryopreserved hepatocytes, 10 μM compound
Procedure, shortened: (§1)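 Cryopreserved hepatocytes (viability >70%) at 0.5×10^6 cells/mL in Leibovitz buffer, preincubated 10 min at 37 °C, then compound at 10 μM (0.1% DMSO) in duplicate; buffer-only incubations as control. Samples at 0-60 min quenched in acetonitrile, analysed by LC-MS/MS; half-life and CLint (μL min^−1 10^−6 cells) from ln % remaining versus time.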

hepatocytes [2] = assay: Hepatocyte stability assay, human; assay type: in vitro ADME; settings: 10 μM compound
Procedure, shortened: as §1

IL-1β = assay: THP-1 AlphaLISA IL-1β cytokine assay; assay type: cell-based; settings: Homo sapiens, differentiated THP-1 cells
Procedure, shortened: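 THP-1 cells differentiated 72 h with PMA, pre-incubated 30 min with compounds, stimulated 24 h with LPS, then 1 h with nigericin, all at 37 °C. Supernatant cytokine measured by AlphaLISA; % inhibition normalised to ±LPS controls and IC50 taken from concentration-response curves.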

[3] = Hepatocyte stability assay, mouse; assay type: in vitro ADME; settings: mouse, cryopreserved hepatocytes, 10 μM compound
Procedure, shortened: as §1

hepatocytes [4] = assay: Hepatocyte stability assay, mouse; assay type: in vitro ADME; settings: 10 μM compound
Procedure, shortened: as §1

NRF2 = NRF2 activation assay (DiscoverX PathHunter NRF2 translocation kit, U2OS cells); assay type: cell-based
Procedure, shortened: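 PathHunter U2OS cells, grown 24 h at 37 °C/5% CO2, treated 6 h with compound; NRF2 nuclear translocation read as enzyme-fragment-complementation chemiluminescence. Activation normalised to dimethyl fumarate high and untreated low controls; EC50 from concentration-response curve.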

[5] = THP-1, differentiated THP-1 cells, Table 2, compounds of formula (II)
[6] = Table 2, compounds of formula (II)
[7] = +GSH, Table 4, compounds of formula (II)
[8] = −GSH, Table 4, compounds of formula (II)
[9] = THP-1, differentiated THP-1 cells, LPS then Nigericin, Table 1
[10] = +GSH, normalised to dimethyl fumarate high control, Table 3
[11] = −GSH, normalised to dimethyl fumarate high control, Table 3

Structure (SMILES)	IC50 (IL-6; [5]) [µM]	half-life at 10 μM ([1]; Table 6, read-out: T½) [min]	CIint (hepatocytes [2]; Table 6)	IC50 (IL-1β; [6]) [µM]	half-life at 10 μM ([3]; Table 6, read-out: T½) [min]	CIint (hepatocytes [4]; Table 6)	EC50 (NRF2; [7]) [µM]	NRF2 activation Emax (NRF2; [7])	EC50 (NRF2; [8]) [µM]	NRF2 activation Emax (NRF2; [8])	IC50 (IL-6; [9]) [µM]	half-life at 10 μM ([1]; Table 5, read-out: T½) [min]	CIint (hepatocytes [2]; Table 5)	IC50 (IL-1β; LPS then Nigericin, Table 1) [µM]	half-life at 10 μM ([3]; Table 5, read-out: T½) [min]	CIint (hepatocytes [4]; Table 5)	EC50 (NRF2; +GSH, Table 3) [µM]	NRF2 activation Emax (NRF2; [10])	EC50 (NRF2; −GSH, Table 3) [µM]	NRF2 activation Emax (NRF2; [11])	further results
O=C(O)/C=C/C(=O)OC1(c2ccc(C(F)(F)F)c(Cl)c2)CCC1 [Intermediate 26, (E)-4-(1-(3-chloro-4-(trifluoromethyl)phenyl)cyclobutoxy)-4-oxobut-2-enoic acid]	< 6	30 to 100	+++ (+++ means >15-30)	< 6	30 to 100	++ (++ means >30-110)	< 23	++ (++ means >87-114%)	< 23	+++ (+++ means >114-150%)											
CC(C)(OC(=O)/C=C/C(=O)O)c1ccc(C(F)(F)F)cc1 [Intermediate 21, (E)-4-oxo-4-((2-(4-(trifluoromethyl)phenyl)propan-2-yl)oxy)but-2-enoic acid]	> 100	> 100	++++ (++++ means 5-15)	6 to 30	> 100	++++ (++++ means 5-15)	< 23	++ (++ means >87-114%)	< 23	+++ (+++ means >114-150%)											EC50 (NRF2; +GSH, from repeated experiments, Table 4): 23 to 48.4 µM
C[C@@H](OC(=O)/C=C/C(=O)O)c1ccc(C(F)(F)F)cc1 [Intermediate 20, (R,E)-4-oxo-4-(1-(4-(trifluoromethyl)phenyl)ethoxy)but-2-enoic acid]	6 to 30	> 100	++++ (++++ means 5-15)	6 to 30	30 to 100	+++ (+++ means >15-30)	23 to 48.4	+ (+ means >50-<87%)	< 23	+++ (+++ means >114-150%)											
O=C(O)CCOC(=O)/C=C/C(=O)OC1CCCCCCC1 [Example 3, (E)-3-((4-(Cyclooctyloxy)-4-oxobut-2-enoyl)oxy)propanoic acid]											< 2.5	5 to 29	+++ (+++ means 50-149)	< 2.5	< 5	+ (+ means >277)	20 to 100	++ (++ means 100-149)	< 2	++++ (++++ means 200-250%)	
O=C(O)COC(=O)/C=C/C(=O)OC1CCCCC1 [Example 2, (E)-2-((4-(cyclohexyloxy)-4-oxobut-2-enoyl)oxy)acetic acid]											6.2 to 9.2	30 to 100	++++ (++++ means <50)	9.3 to 14.3	5 to 10	++ (++ means 200-277)	20 to 100	+ (+ means >17.1-99)	2.1 to 6	++++ (++++ means 200-250%)	
O=C(O)/C=C/C(=O)OC1(c2cccc(C(F)(F)F)c2)CCC1 [Intermediate 10, (E)-4-oxo-4-(1-(3-(trifluoromethyl)phenyl)cyclobutoxy)but-2-enoic acid]	6 to 30	5 to 29	++ (++ means >30-110)	6 to 30	30 to 100	++ (++ means >30-110)	< 23	+++ (+++ means >114-150%)	< 23	+++ (+++ means >114-150%)											
O=C(O)CCOC(=O)/C=C/C(=O)OC1CCCCC1 [Example 4, (E)-3-((4-(cyclohexyloxy)-4-oxobut-2-enoyl)oxy)propanoic acid]											< 2.5	5 to 29	+++ (+++ means 50-149)	2.5 to 6.1	< 5	+ (+ means >277)	6 to 20	+ (+ means >17.1-99)	2.1 to 6	+++ (+++ means 150-199%)	IC50 (IL-6; THP-1, from repeated experiments, Table 1): 2.5 to 6.1 µM
O=C(O)/C=C/C(=O)OC1(c2ccc(C(F)(F)F)cc2)CC1 [Intermediate 38, (E)-4-oxo-4-(1-(4-(trifluoromethyl)phenyl)cyclopropoxy)but-2-enoic acid]	6 to 30	30 to 100	+++ (+++ means >15-30)	< 6	5 to 29	++ (++ means >30-110)	< 23	+ (+ means >50-<87%)	< 23	++++ (++++ means >150%)											
O=C(O)/C=C/C(=O)OC1(c2ccc(Br)cc2)CCC1 [Intermediate 12, (E)-4-(1-(4-bromophenyl)cyclobutoxy)-4-oxobut-2-enoic acid]	6 to 30	30 to 100	+++ (+++ means >15-30)	6 to 30	30 to 100	+++ (+++ means >15-30)	< 23	++ (++ means >87-114%)	< 23	++ (++ means >87-114%)											
O=C(O)/C=C/C(=O)OC1(c2ccc(C(F)(F)F)cc2)CCC1 [Intermediate 3, (E)-4-oxo-4-(1-(4-(trifluoromethyl)phenyl)cyclobutoxy)but-2-enoic acid]		> 100	++++ (++++ means 5-15)	< 6	30 to 100	+++ (+++ means >15-30)	< 23	+++ (+++ means >114-150%)	< 23	+++ (+++ means >114-150%)											IC50 (IL-6; differentiated THP-1 cells, Table 2, compounds of formula (II)): < 6 µM
